Measurements as given in patent publication US7820714B2, “Siglec inhibitors” (priority 2001, dated 2010).

Legend:
Siglec-2 (human CD22) = target: T1, Siglec-2 (human CD22) (Homo sapiens, UniProt P20273); experiment: Hapten inhibition assay, Siglec-2 (human CD22); assay type: binding; details: for Siglec-2 (human CD22) rIP: quotient IC50 reference compound / IC50 compound; for IC50: unit inferred
T1 sequence (P20273 20-138 limits assumed): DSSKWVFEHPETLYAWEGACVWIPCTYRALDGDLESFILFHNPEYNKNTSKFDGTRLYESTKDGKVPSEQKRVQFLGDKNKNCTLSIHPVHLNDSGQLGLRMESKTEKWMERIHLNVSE
Method: (§2) Preferably, the inhibition can be determined by a Hapten inhibition test. […] After overnight incubation at 4° C. the unbound complexes are removed by washing the cells and the bound radioactivity is determined. From the data obtained in this way, the concentrations are found which lead to 50% inhibition of the binding (IC50 values) (5, 6). Specially preferred during the Hapten inhibition test was 10 μl of the complex solution with an activity of 10^3 Bq ^125I mixed with the same volume of a solution of the substance to be investigated (concentrated three times) and incubated at 4° C. for one hour. Then followed the addition of 10 μl of a suspension of target cells, preferably 0.25 to 0.5% of human erythrocytes and incubation overnight at 4° C. The unbound radioactivity is removed by washing the cells five times with 200 μl of washing buffer, preferably phosphate-buffered saline with 0.1% (W/V) bovine serum albumin, and the cell-bound activity is determined with a γ-counter. […] The inhibition is determined in that the value without inhibitor is set to 0% and that with the sialidase-treated cells is set equal to 100%.
(§3) The IC50 value is the siglec inhibitor concentration which leads to 50% inhibition in the binding in the Hapten inhibition assay.

[1] = system: primary B-lymphocytes from human blood; experiment: Ca2+ concentration in primary B-lymphocytes stimulated with anti-IgM; assay type: cell-based
From the text: (§1) The compound BPC-Neu5Ac (shown below) was used according to known methods in test series for the investigation of the selectivity and the activity. […] This impairment with regard to the binding of ligands leads to an incomplete activation of the intracellular inhibitor domain of CD22.

Siglec-2 (murine CD22) = target: T2, Siglec-2 (murine CD22) (Mus musculus, UniProt P35329); experiment: Hapten inhibition assay, Siglec-2 (murine CD22); assay type: binding; details: for Siglec-2 (murine CD22) rIP: quotient IC50 reference compound / IC50 compound; for IC50: unit inferred
T2 sequence (P35329 22-148 limits assumed): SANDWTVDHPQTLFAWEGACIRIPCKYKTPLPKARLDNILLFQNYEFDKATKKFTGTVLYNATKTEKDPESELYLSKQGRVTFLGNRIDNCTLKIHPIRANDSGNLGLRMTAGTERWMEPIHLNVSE
Method: as §2, §3

Daudi cells = experiment: Ca2+ concentration in Daudi cells stimulated with anti-IgM; assay type: cell-based; details: Daudi cells stimulated with anti-IgM in the presence of the compound
From the text: as §1

Siglec-1 (sialoadhesin) = Siglec-1 (sialoadhesin) (Mus musculus, UniProt Q62230); experiment: Hapten inhibition assay, Siglec-1 (sialoadhesin); assay type: binding; details: for Siglec-1 (sialoadhesin) rIP: quotient IC50 reference compound / IC50 compound
Sequence of Siglec-1 (sialoadhesin) (Q62230 20-136 limits assumed): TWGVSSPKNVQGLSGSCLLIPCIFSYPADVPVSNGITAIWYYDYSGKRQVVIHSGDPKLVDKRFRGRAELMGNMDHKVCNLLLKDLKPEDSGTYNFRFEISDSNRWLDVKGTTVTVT
Method: as §2, §3

Siglec-4a (MAG) = target: T3, Siglec-4a (MAG) (UniProt P20917); experiment: Hapten inhibition assay, Siglec-4a (MAG); details: for Siglec-4a (MAG) rIP: quotient IC50 reference compound / IC50 compound; for IC50: read-out: Siglec-4a (MAG) IC50, unit inferred
T3 sequence (P20917 1-627): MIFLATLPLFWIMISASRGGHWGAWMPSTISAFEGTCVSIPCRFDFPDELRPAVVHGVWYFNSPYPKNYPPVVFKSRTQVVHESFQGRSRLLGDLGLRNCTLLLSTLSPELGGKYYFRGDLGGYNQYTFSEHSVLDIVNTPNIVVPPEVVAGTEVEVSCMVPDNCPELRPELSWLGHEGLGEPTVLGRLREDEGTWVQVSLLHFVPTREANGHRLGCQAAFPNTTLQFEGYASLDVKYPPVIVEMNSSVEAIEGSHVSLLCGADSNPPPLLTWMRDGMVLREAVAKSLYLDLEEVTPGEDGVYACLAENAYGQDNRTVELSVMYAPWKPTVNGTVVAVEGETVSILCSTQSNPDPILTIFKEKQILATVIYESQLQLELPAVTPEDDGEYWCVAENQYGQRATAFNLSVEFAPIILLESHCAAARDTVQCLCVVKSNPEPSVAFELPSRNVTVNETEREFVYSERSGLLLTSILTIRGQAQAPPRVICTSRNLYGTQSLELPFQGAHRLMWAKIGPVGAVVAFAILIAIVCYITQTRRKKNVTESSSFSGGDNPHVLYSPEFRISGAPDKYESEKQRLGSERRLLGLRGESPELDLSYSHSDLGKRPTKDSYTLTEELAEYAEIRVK
Method: Preferably, the inhibition can be determined by a Hapten inhibition test. […] After overnight incubation at 4° C. the unbound complexes are removed by washing the cells and the bound radioactivity is determined. […] Then followed the addition of 10 μl of a suspension of target cells, preferably 0.25 to 0.5% of human erythrocytes and incubation overnight at 4° C. The unbound radioactivity is removed by washing the cells five times with 200 μl of washing buffer, preferably phosphate-buffered saline with 0.1% (W/V) bovine serum albumin, and the cell-bound activity is determined with a γ-counter. […] The inhibition is determined in that the value without inhibitor is set to 0% and that with the sialidase-treated cells is set equal to 100%.

Compound	selectivity of affinity for hCD22 (Siglec-2 (human CD22); in words)	Siglec-2 (human CD22) rIP (Siglec-2 (human CD22))	binds stronger to siglec-2 than the reference compound (Siglec-2 (human CD22); relative to 2-alpha-methyl-5-N-acetyl-neuraminic acid)	IC50 (Siglec-2 (human CD22)) [µM]	Ca2+ concentration [1]	Siglec-2 (murine CD22) rIP (Siglec-2 (murine CD22))	IC50 (Siglec-2 (murine CD22)) [µM]	Ca2+ concentration (Daudi cells)	Siglec-1 (sialoadhesin) rIP (Siglec-1 (sialoadhesin))	IC50 (Siglec-1 (sialoadhesin); unit inferred) [mM]	Siglec-4a (MAG) rIP (Siglec-4a (MAG))	IC50 (Siglec-4a (MAG)) [µM]	Siglec-1 (sialoadhesin) percentage in parentheses below the IC50 bound (Siglec-1 (sialoadhesin); at the concentration of the IC50 bound, meaning not defined in the patent)	IC50 (Siglec-1 (sialoadhesin); bounds given in mM) [mM]
CO[C@]1(C(=O)O)CC(O)[C@@H](NC(C)=O)C([C@@H](O)[C@H](O)CNC(=O)c2ccc(-c3ccccc3)cc2)O1 (stereo partly drawn) [Methyl-α-9-N-(biphenyl-4-carbonyl)-amino-9-desoxy-Neu5Ac]	very remarkable selective affinity for hCD22	150	approximately 150 times	4	clearly increased Ca^2+ concentration	5.0	1220	rise in the Ca^2+ concentration	13	0.052	218	22	–	–
CS[C@]1(C(=O)O)C[C@H](O)[C@@H](NC(C)=O)[C@H]([C@H](O)[C@H](O)CO)O1 [Methylthio-α-Neu5Ac]	–	1.6	–	1370	–	1.1	4250	–	0.8	0.6	1.3	2780	–	–
Methyl-α-9-N-fluoresceinyl-amino-9-desoxy-Neu5Ac	–	28	–	77	–	48	100	–	<<0.5	–	41	106	(121%)	> 1.5
